According to patent US20260215418A1, “HYDROCARBON ALCOHOLS AND THEIR DERIVATIVES AS SYNERGISTS IN PESTICIDE ACTIVITY” (priority 2022, published 2026):
Like-named read-outs stand apart in the source and are kept apart here.

Test system: Blatta orientalis
Conditions: Blatta orientalis; for synergizing effect on Azamethiphos: synergist applied with Azamethiphos; for synergizing effect on Cypermethrin: synergist applied with Cypermethrin

Compound | synergizing effect on Azamethiphos | synergizing effect on Cypermethrin | synergizing effect on Cypermethrin (listed as oleic alcohol 95%)
Oleic alcohol [Oleic alcohol 95%] | fine synergizing effect | fine synergizing effect | superior to that shown with PBO
CCCCCCCCOC(=O)OCCCCCCCC [dioctyl carbonate] | good synergizing effect | synergizing effect | –
CCCCCCCC/C=C\CCCCCCCCOC(C)=O [Oleyl acetate] | fine synergizing effect | excellent-fine synergizing effect | –
